Measured values published in patent publication US8546443B2, “Benzylic oxindole pyrimidines” (Boehringer Ingelheim International GmbH, priority 2010, dated 2013).

Target: T1, cytoplasmic kinase domain of human IGF-1R (IGF-1R-GST) (Homo sapiens, UniProt P08069)
T1 construct: cytoplasmic kinase domain of human IGF-1R (amino acids 964-1370); GST (glutathione-S-transferase); made in house; host or cells: High Five insect cells (Invitrogen)
Assay: Insulin-like growth factor-1 receptor (IGF-1R) kinase assay (DELFIA)
Type: biochemical
Conditions: IGF-1R-GST kinase activity, read-out: IGF1R IC50
Experimental: Insulin-Like Growth Factor-1 Receptor (IGF-1R)-Kinase Assay
The kinase activity is measured by DELFIA® assay (dissociation-enhanced lanthanide fluorescence immunoassay, Perkin Elmer). […] Enzyme activity is measured in the presence of substances and a control substance. Poly-glutamate-tyrosine peptide (pEY, Sigma Aldrich) and biotinylated pEY (bio-pEY) are used as reaction substrates.
After 40 min at RT the reactions are stopped with 50 μL of stop solution (250 mM EDTA, 20 mM HEPES pH 7.4). 90 μL from each reaction are transferred onto streptavidin-coated 96-well plates. After 120 min incubation at RT the plates are washed three times with 200 μL phosphate-buffered saline (PBS) per well. The plates are incubated for 60 min with 100 μL of europium-coupled antibody against phospho-tyrosine (diluted 1/2000 in Perkin Elmer DELFIA assay buffer) per well. The plates are washed three times with 200 μL per well of DELFIA washing buffer. 100 μL DELFIA Enhancement Solution (Perkin Elmer) is added to each well, and the plates are incubated for 10 min. The fluorescence signal is measured with a Wallac Victor TRF Reader. IC50 values for the inhibition of the IGF-1R-kinase activity are calculated using the programmes Fifty (Version 2) and GraphPad (Version 3.0).

T1 sequence (P08069 964-1367 limits assumed): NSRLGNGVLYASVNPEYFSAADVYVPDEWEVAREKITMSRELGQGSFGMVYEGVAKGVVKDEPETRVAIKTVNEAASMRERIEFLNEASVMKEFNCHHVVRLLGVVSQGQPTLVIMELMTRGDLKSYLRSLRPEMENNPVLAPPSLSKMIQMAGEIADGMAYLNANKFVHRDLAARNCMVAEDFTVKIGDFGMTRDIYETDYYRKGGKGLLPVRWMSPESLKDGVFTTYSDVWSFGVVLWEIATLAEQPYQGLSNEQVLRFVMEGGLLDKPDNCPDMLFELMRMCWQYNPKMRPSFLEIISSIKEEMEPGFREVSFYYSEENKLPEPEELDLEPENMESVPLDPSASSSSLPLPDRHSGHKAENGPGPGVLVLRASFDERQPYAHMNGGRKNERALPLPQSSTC

| Structure (SMILES) | IC50 [nM] |
| --- | --- |
| CCOC(=O)N1CCC(N2CCN(c3ccc(Nc4ncc(C(F)(F)F)c(NCc5cccc6c5CC(=O)N6)n4)c(OC)c3)CC2)CC1 [Example I-166] | 11 |
| COCCNC1CCN(c2ccc(Nc3ncc(C(F)(F)F)c(NCc4cccc5c4C(C)(C)C(=O)N5)n3)c(OC)c2)CC1 [Example I-167] | 0.2 |
| COc1cc(N2CCC(N3CCC(OC)CC3)CC2)ccc1Nc1ncc(C(F)(F)F)c(NCc2cccc3c2C(C)(C)C(=O)N3)n1 [Example I-170] | 0.33 |
| COc1cc(N2CCC(N3CCOCC3)CC2)ccc1Nc1ncc(C(F)(F)F)c(NCc2cccc3c2C(C)(C)C(=O)N3)n1 [Example I-171] | 0.38 |
| COc1cc(N2CCC(N3CC[C@H](O)C3)CC2)ccc1Nc1ncc(C(F)(F)F)c(NCc2cccc3c2C(C)(C)C(=O)N3)n1 [Example I-172] | 0.4 |
| COc1cc(N2CCC(NCC(C)(C)OC)CC2)ccc1Nc1ncc(C(F)(F)F)c(NCc2cccc3c2C(C)(C)C(=O)N3)n1 [Example I-173] | 0.46 |
| COc1cc(N2CCC(N3CC[C@@H](O)C3)CC2)ccc1Nc1ncc(C(F)(F)F)c(NCc2cccc3c2C(C)(C)C(=O)N3)n1 [Example I-174] | 0.81 |
| COc1cc(N2CCC(N3CCC3)CC2)ccc1Nc1ncc(C(F)(F)F)c(NCc2cccc3c2C(C)(C)C(=O)N3)n1 [Example I-176] | 0.98 |
| COc1cc(N2CCC(N3CCC(O)CC3)CC2)ccc1Nc1ncc(C(F)(F)F)c(NCc2cccc3c2C(C)(C)C(=O)N3)n1 [Example I-177] | 1 |
| COc1cc(N2CCC(N3CCCC3)CC2)ccc1Nc1ncc(C(F)(F)F)c(NCc2cccc3c2C(C)(C)C(=O)N3)n1 [Example I-180] | 2 |
| COc1cc(N2CCC(N3CCN(C4CC4)CC3)CC2)ccc1Nc1ncc(C(F)(F)F)c(NCc2cccc3c2CC(=O)N3)n1 [Example I-190] | 6 |
| COc1cc(N2CCC(N3CCC(OC)CC3)CC2)ccc1Nc1ncc(C(F)(F)F)c(NCc2cccc3c2CC(=O)N3)n1 [Example I-192] | 6 |
| COc1cc(N2CCC(N3CCN(C4CCN(C)CC4)CC3)CC2)ccc1Nc1ncc(C(F)(F)F)c(NCc2cccc3c2CC(=O)N3)n1 [Example I-193] | 7 |
| COc1cc(N2CCC(N3CCC(C#N)CC3)CC2)ccc1Nc1ncc(C(F)(F)F)c(NCc2cccc3c2CC(=O)N3)n1 [Example I-195] | 7 |
| COc1cc(N2CCC(N3CCOCC3)CC2)ccc1Nc1ncc(C(F)(F)F)c(NCc2cccc3c2CC(=O)N3)n1 [Example I-196] | 8 |
| COc1cc(N2CCC(N3CCN(C(C)C)CC3)CC2)ccc1Nc1ncc(C(F)(F)F)c(NCc2cccc3c2CC(=O)N3)n1 [Example I-198] | 11 |
| COc1cc(N2CCC(N3CCC(F)(F)CC3)CC2)ccc1Nc1ncc(C(F)(F)F)c(NCc2cccc3c2CC(=O)N3)n1 [Example I-199] | 11 |
| COc1cc(N2CCC(N3CCN(C4CCOCC4)CC3)CC2)ccc1Nc1ncc(C(F)(F)F)c(NCc2cccc3c2CC(=O)N3)n1 [Example I-200] | 13 |
| COc1cc(N2CCC(N3CCN(C(C)=O)CC3)CC2)ccc1Nc1ncc(C(F)(F)F)c(NCc2cccc3c2CC(=O)N3)n1 [Example I-201] | 20 |
| CC1(C)C(=O)Nc2cccc(CNc3nc(Nc4ccc(C5CCN(CCO)CC5)cc4)ncc3Cl)c21 [Example I-205] | 2 |
| CNC(=O)CN1CCC(c2ccc(Nc3ncc(Cl)c(NCc4cccc5c4C(C)(C)C(=O)N5)n3)cc2)CC1 [Example I-206] | 5 |
| CC1(C)C(=O)Nc2cccc(CNc3nc(Nc4ccc(C5CCN(CCS(C)(=O)=O)CC5)cc4)ncc3Cl)c21 [Example I-207] | 10 |
| CNC(=O)CN1CCC(c2ccc(Nc3ncc(Cl)c(NCc4cccc5c4C(C)(C)C(=O)N5)n3)c(C)c2)CC1 [Example I-219] | 2 |
| CCN1CCC(NC(=O)c2ccc(Nc3ncc(C(F)(F)F)c(NCc4cccc5c4C(C)(C)C(=O)N5)n3)c(OC)c2)CC1 [Example I-225] | 2 |

Other lines, results leading:

| IC50 [nM] | Structure (SMILES) |
| --- | --- |
| 4 | COc1cc(N2CCN(CC3CC3)CC2)ccc1Nc1ncc(C(F)(F)F)c(NCc2cccc3c2CC(=O)N3)n1 [Example I-165] |
| 0.2 | COCCCN(C)C1CCN(c2ccc(Nc3ncc(C(F)(F)F)c(NCc4cccc5c4C(C)(C)C(=O)N5)n3)c(OC)c2)CC1 [Example I-168] |
| 0.26 | COc1cc(N2CCC(N(C)CCO)CC2)ccc1Nc1ncc(C(F)(F)F)c(NCc2cccc3c2C(C)(C)C(=O)N3)n1 [Example I-169] |
| 0.87 | COCCN(C)C1CCN(c2ccc(Nc3ncc(C(F)(F)F)c(NCc4cccc5c4C(C)(C)C(=O)N5)n3)c(OC)c2)CC1 [Example I-175] |
| 2 | COc1cc(N2CCC(N(C)CCN(C)C)CC2)ccc1Nc1ncc(C(F)(F)F)c(NCc2cccc3c2CC(=O)N3)n1 [Example I-178] |
| 2 | COCCNC1CCN(c2ccc(Nc3ncc(C(F)(F)F)c(NCc4cccc5c4CC(=O)N5)n3)c(OC)c2)CC1 [Example I-179] |
| 2 | COc1cc(N2CCC(N(C)C)CC2)ccc1Nc1ncc(C(F)(F)F)c(NCc2cccc3c2C(C)(C)C(=O)N3)n1 [Example I-181] |
| 3 | COc1cc(N2CCC(N3CCC(N(C)C)CC3)CC2)ccc1Nc1ncc(C(F)(F)F)c(NCc2cccc3c2CC(=O)N3)n1 [Example I-182] |
| 3 | COc1cc(N2CCC(NCCCN(C)C)CC2)ccc1Nc1ncc(C(F)(F)F)c(NCc2cccc3c2CC(=O)N3)n1 [Example I-183] |
| 4 | COc1cc(N2CCC(N(C)C)CC2)ccc1Nc1ncc(C(F)(F)F)c(NCc2cccc3c2CC(=O)N3)n1 [Example I-184] |
| 4 | COc1cc(N2CCC(N(C)CCCN(C)C)CC2)ccc1Nc1ncc(C(F)(F)F)c(NCc2cccc3c2CC(=O)N3)n1 [Example I-185] |
| 4 | COc1cc(N2CCC(N(C)CCO)CC2)ccc1Nc1ncc(C(F)(F)F)c(NCc2cccc3c2CC(=O)N3)n1 [Example I-186] |
| 4 | CNC1CCN(c2ccc(Nc3ncc(C(F)(F)F)c(NCc4cccc5c4CC(=O)N5)n3)c(OC)c2)CC1 [Example I-187] |
| 5 | COc1cc(N2CCC(N3CCC(O)CC3)CC2)ccc1Nc1ncc(C(F)(F)F)c(NCc2cccc3c2CC(=O)N3)n1 [Example I-188] |
| 5 | COc1cc(N2CCC(N3CCCC3)CC2)ccc1Nc1ncc(C(F)(F)F)c(NCc2cccc3c2CC(=O)N3)n1 [Example I-189] |
| 6 | COc1cc(N2CCC(NCCO)CC2)ccc1Nc1ncc(C(F)(F)F)c(NCc2cccc3c2CC(=O)N3)n1 [Example I-191] |
| 7 | COc1cc(N2CCC(NCCN(C)C)CC2)ccc1Nc1ncc(C(F)(F)F)c(NCc2cccc3c2CC(=O)N3)n1 [Example I-194] |
| 9 | COCCN(C)C1CCN(c2ccc(Nc3ncc(C(F)(F)F)c(NCc4cccc5c4CC(=O)N5)n3)c(OC)c2)CC1 [Example I-197] |
| 24 | COc1cc(N2CCC(N3CCN(C)CC3)CC2)ccc1Nc1ncc(C(F)(F)F)c(NCc2cccc3c2CC(=O)N3)n1 [Example I-202] |
| 32 | COc1cc(N2CCN(CCF)CC2)ccc1Nc1ncc(C(F)(F)F)c(NCc2cccc3c2CC(=O)N3)n1 [Example I-222] |
| 18 | COc1cc(N2CCN(CCO)CC2)ccc1Nc1ncc(C(F)(F)F)c(NCc2cccc3c2CC(=O)N3)n1 [Example I-223] |
| 18 | COCCN1CCN(c2ccc(Nc3ncc(C(F)(F)F)c(NCc4cccc5c4CC(=O)N5)n3)c(OC)c2)CC1 [Example I-224] |
